Laboratory results taken from ChEMBL document CHEMBL1150646, “Ravenic acid, a new tetramic acid isolated from a cultured microfungus, Penicillium sp” (J Nat Prod, 2002).
The source made the active and inactive calls. The calls are words filed in the database; no cut-off is given here.

Tested on: Staphylococcus aureus
Assay: Antibacterial activity against methicillin-resistant Staphylococcus aureus at 25 ug/mL
Assay type: functional, organism-based

Q: Which inhibition does the source give for `C/C=C/C=C/C=C(C)/C=C/C(O)=C1\C(=O)CNC1=O` here?
A: Its inhibition is “Active”.
